From PMC13050480, “Preclinical Development of GT-14, a Novel Inhibitor of Gαi2 Protein: Comprehensive Evaluation of Physicochemical, Metabolic Characteristics and Tissue Distribution” (The AAPS journal, 2025)
In brackets after ≈: the same amount, converted by molar mass. Entries after “also recorded” stand apart in the source; their conditions may differ. Read-outs that look alike come from different tables or passages of the source.

Key:
[1] = test system: DU145; parameters: method as in PMID 32575572; settings: cited from earlier work
[2] = Stability of GT-14 in rat urine; assay type: in vitro ADME; settings: for Stability at -20 °C (48 hrs) in rat urine: n=5, in %
Method: Blank rat urine was spiked with GT-14 at conc. of 25, 50, 500 and 1000 ng/mL. The samples were kept at -20°C for 48 hours (n=5, Mean ± SD)

[3] = test system: LNCaP cells; parameters: method as in PMID 38254786; settings: simultaneous treatment; cited from earlier work
[4] = test system: PC3 cells; settings: cited from earlier work
[5] = test system: rat liver microsomes; assay: Phase I biotransformation in rat liver microsomes; assay type: in vitro ADME; settings: NADPH regenerating system, 37°C
Method: (§1) The in vitro phase I reaction was conducted using rat liver microsome, which contain the cytochrome P450 monooxygenases that catalyze oxidation, reduction, or hydrolysis reactions to introduce or expose functional groups on the substrate. NADPH is the cofactor to provide the reducing equivalents required for enzymatic activity, while the cofactor regeneration systems (NADP^+, glucose-6-phosphate, and glucose-6-phosphate dehydrogenase) maintain a sustained supply of NADPH during the reaction to facilitate the metabolite, Potassium phosphate buffer (KPI) mimics physiological conditions. The components were added to microcentrifuge tubes in the following order: The stock solution GT-14 (5 μL, 1 mM) was pre-incubated with rat liver microsomes (12.5 μL, 20 mg/mL, Corning Inc.) at 37°C in KPI buffer(452.5 μL, 50 mM) for 5 min before the reaction was initiated by the addition of an NADPH regenerating system, which consisted of 25μL of solution A1(1.3 mM NADP+, 3.3 mM glucose-6-phosphate, 3.3 mM magnesium chloride), and 5μL of solution B1 (0.5 units/mL glucose-6-phosphate dehydrogenase). Reaction mixtures were incubated at 37 °C in a shaker bath, shaking at 100 rpm. […] The quenched samples were vortexed, centrifuged (14,000 rpm for 15 min) and analyzed by UPLC.

[6] = Phase I biotransformation in rat liver microsomes; assay type: in vitro ADME; settings: rat, 60 min incubation
Method: as §1

[7] = pH-dependent solubility in USP buffers; assay type: physicochemical; settings: standard USP buffer, aqueous buffer
Method: The pH-dependent stability of GT-14 was assessed in aqueous media of pH ranging from 1 to 10 at room temperature. Standard USP buffers ([11]) were prepared and used for this experiment. Details of buffer solutions are provided in Table I. For the pH solubility profile, GT-14 solid was added in excess amounts in various buffer solutions.

[8] = Solubility in different solvents, shake-flask method; assay type: physicochemical; settings: room temperature
Method: Solubility of GT-14 was assessed in different solvents, namely, water, ethanol, PEG 300, PEG 400, propylene glycol, DMSO, DMA, olive oil, soybean oil, Labrasol and Labrafac, by the shake-flask method. Briefly, an excess amount of GT-14 was added to each of the selected solvents in a scintillation vial. The vials were allowed to shake on a mechanical reciprocating shaker at room temperature for 24 h to achieve solvent saturation. The samples were then centrifuged at 15,000 rpm for 15 min at room temperature. The supernatant with dissolved GT-14 was separated from the pellet of the undissolved compound. It was then diluted and analyzed by UPLC to determine the concentration of GT-14. All experiments were conducted in triplicates.

[9] = Lipophilicity (logP), octanol-water shake-flask method; assay type: physicochemical; settings: 1-octanol/water, room temperature, triplicate, read-out: experimental logP (octanol-water)
Method: The lipophilicity of GT-14 as indicated by the logP value (octanol–water partition coefficient) was determined by the traditional shake-flask method. Briefly, equal volumes (1 mL) of 1-octanol and water were added to an amber glass bottle and allowed to equilibrate on a shaker for 24 h. Following equilibration, approx. 1 mg of GT-14 (dissolved in Acetonitrile) was added to the two-phase system and allowed to shake continuously at room temperature for 72 h. The two phases were separated using a separating funnel and then centrifuged at 15,000 rpm for 10 min. The concentration of GT-14 in the octanol and water phases was determined by UPLC assay. The experiment was conducted in triplicate.
The logP was calculated by the equation: logP=logOctanolConc./AqueousConc.

stability in rat urine (in words) [2]: stable
Stability at -20 °C (48 hrs) in rat urine ([2]; 25 ng/ml): 109.28 ± 2.57
Stability at -20 °C (48 hrs) in rat urine ([2]; 50 ng/ml): 110.25 ± 2.36
Stability at -20 °C (48 hrs) in rat urine ([2]; 500 ng/ml): 105.71 ± 3.76
Stability at -20 °C (48 hrs) in rat urine ([2]; 1000 ng/ml): 101.43 ± 2.58
remaining at 1 h, 10 μM [6]: > 90%
solubility thermodynamic at 24 h ([7]; between pH 5 and 7, 24 h): < 10 µg/mL
solubility thermodynamic at 24 h ([7]; pH 1.2, 24 h): ~80 µg/mL (≈ 0.303 mM)
solubility thermodynamic at 24 h ([7]; pH 4.6, 24 h): ~140 µg/mL (≈ 0.53 mM)
solubility at 24 h ([8]; DMA, thermodynamic from solid, n=3, read-out: Solubility in DMA): 107000 µg/mL (≈ 406 mM)
solubility at 24 h ([8]; DMSO, thermodynamic from solid, n=3, read-out: Solubility in DMSO): 80000 µg/mL (≈ 303 mM)
solubility at 24 h ([8]; Labrafac CC (Labrafac Lipophile WL1349), thermodynamic from solid, n=3, read-out: Solubility in Labrafac CC (Labrafac Lipophile WL1349)): 8600 µg/mL (≈ 32.5 mM)
solubility at 24 h ([8]; Labrasol, thermodynamic from solid, n=3, read-out: Solubility in Labrasol): 8100 µg/mL (≈ 30.6 mM)
solubility at 24 h ([8]; PEG 300, thermodynamic from solid, n=3, read-out: Solubility in PEG 300): 17200 µg/mL (≈ 65.1 mM)
solubility at 24 h ([8]; PEG 400, thermodynamic from solid, n=3, read-out: Solubility in PEG 400): 11300 µg/mL (≈ 42.7 mM)
solubility at 24 h ([8]; olive oil, thermodynamic from solid, n=3, read-out: Solubility in olive oil): 11400 µg/mL (≈ 43.1 mM)
solubility at 24 h ([8]; propylene glycol, thermodynamic from solid, n=3, read-out: Solubility in propylene glycol): 5300 µg/mL (≈ 20.1 mM)
Solubility in DMA ([8]; 24 h, n=3): freely soluble
Solubility in DMSO ([8]; 24 h, n=3): freely soluble
Solubility in Labrafac CC (Labrafac Lipophile WL1349) ([8]; 24 h, n=3): slightly soluble
Solubility in PEG 300 ([8]; 24 h, n=3): sparingly soluble
Solubility in PEG 400 ([8]; 24 h, n=3): sparingly soluble
Solubility in olive oil ([8]; 24 h, n=3): sparingly soluble
Solubility in propylene glycol ([8]; 24 h, n=3): slightly soluble
Solubility in soybean oil ([8]; 24 h, n=3): slightly soluble
Solubility in water ([8]; 24 h, n=3): very slightly soluble
solubility at 24 h ([8]; soybean oil, thermodynamic from solid, n=3, read-out: Solubility in soybean oil): 7800 µg/mL (≈ 29.5 mM)
solubility at 24 h ([8]; water, n=3, read-out: Solubility in water): 110 µg/mL (≈ 0.416 mM)
logP at 72 h [9]: 2.38
Compound: C/C(=N\c1ccc(O)cc1)c1cc2ccccc2n1C [GT-14, (E)-4-((1-(1-methyl-1H-indol-2-yl)ethylidene)amino)phenol]
migratory capability of DU145 cells [1]: significant reduction
HDACi and antiandrogen effects on cell migration in LNCaP cells [3]: blocked
migratory capability of PC3 cells [4]: significant reduction
stimulatory effects of docetaxel (cell migration) in PC3 cells ([4]; simultaneous treatment): blocked
Phase I metabolism (UPLC peaks) [5]: undergoes Phase I metabolism; also recorded: underwent Phase I metabolism; also recorded: at least four additional peaks appeared
